# Experimental data taken from patent US12415774B2, “Polyol-based esters of hydroxycarboxylic acids” (KetoLipix Therapeutics GmbH, priority 2019, dated 2025).
# Tested on: pancreatin (Panzytrat 40,000)
# Procedure: Both media are from the company Biorelevant®, Ltd. in Great Britain. In addition, in some experiments porcine pancreas is added (Panzytrat® 40,000, Fa. Allergan).
# The pancreatin is used in the form of the commercially available product Panzytrat® 40,000 from the Allergan company. The whole mixture is stirred on a hot plate at 50° C.; the course of the reaction is determined and monitored by continuously recording the acid number over time.
row,Substance,cleavage by pancreatin to the free 3-hydroxybutyric acid
1,3-BHB-tri-diglycerol ester,cleaved by pancreatin to the free 3-hydroxybutyric acid
2,3-BHB-di-diglycerol ester,cleaved by pancreatin to the free 3-hydroxybutyric acid
3,3-BHB-mono-diglycerol ester,cleaved by pancreatin to the free 3-hydroxybutyric acid
